Literature values, collected in US12728116B2, “Methods of treating multiple sclerosis” (Vanda Pharmaceuticals Inc., priority 2021, dated 2026).

Test system: adult subjects with relapsing MS
Settings: comparison values given in brackets; cited from earlier work

SMILES | ECG HR effect: time of nadir post-dose (other S1P receptor modulators)
CCCCCCCCc1ccc(CCC(N)(CO)CO)cc1 [fingolimod] | ~6 h
CCc1cc(/C(C)=N/OCc2ccc(C3CCCCC3)c(C(F)(F)F)c2)ccc1CN1CC(C(=O)O)C1 [siponimod] | 3 to 4 h
